From article PMC6093650, “Antidepressive and anxiolytic effects of ostruthin, a TREK-1 channel activator” (PLoS ONE, 2018)

Key:
TASK-3 = molecular target: T1, TASK-3 (Homo sapiens, UniProt Q9NPC2); test: whole-cell patch-clamp of TASK-3 currents in 293T cells; format: cell-based
T1 construct: expressed in transfected cells; host or cells: 293T (transient, calcium-phosphate transfection)
Text: (§1) For recordings of K^+ channel currents, we prepared stable cell lines for TREK-1, TWIK-related acid-sensitive K^+ channel (TASK-1), strongly inwardly rectifying K^+ channel (Kir2.1), and human ether-a-go-go-related gene (HERG-1) channels and transiently expressed other channels in 293T cells using a calcium-phosphate transfection method. For the establishment of the stable lines, we used lentiviral vectors, and the preparation methods for the lentiviral vectors were described in our previous report. TR-1 cells, which stably expressed TREK-1 channel and were grown on a small cover glass (3 × 18 mm), were placed in a recording chamber with an internal volume of 200 μl. Whole-cell currents were recorded in Tyrode solution using an Axopatch 200B amplifier (Axon Instruments, Foster City, CA) at 25°C. Tyrode solution contained (in mM): NaCl 140, KCl 5.4, NaH2PO4 0.33, CaCl2 2, MgCl2 1, HEPES 5, and glucose 5.5 (pH 7.4 adjusted with NaOH). […] Perfusion (100 μl/min) was continued to maintain the water level throughout recordings. pH and osmotic pressure of solutions were measured with a pH meter (Horiba, Kyoto, Japan) and a freezing point osmometer (Knauer, Berlin, Germany), respectively. […]

Kir2.1 = molecular target: T2, Kir2.1 (Homo sapiens, UniProt P63252); test: whole-cell patch-clamp of Kir2.1 currents in 293T cells; format: cell-based; settings: n = 5, read-out: IC50 Kir 2.1
T2 construct: expressed in transfected cells
T2 sequence (P63252 1-427): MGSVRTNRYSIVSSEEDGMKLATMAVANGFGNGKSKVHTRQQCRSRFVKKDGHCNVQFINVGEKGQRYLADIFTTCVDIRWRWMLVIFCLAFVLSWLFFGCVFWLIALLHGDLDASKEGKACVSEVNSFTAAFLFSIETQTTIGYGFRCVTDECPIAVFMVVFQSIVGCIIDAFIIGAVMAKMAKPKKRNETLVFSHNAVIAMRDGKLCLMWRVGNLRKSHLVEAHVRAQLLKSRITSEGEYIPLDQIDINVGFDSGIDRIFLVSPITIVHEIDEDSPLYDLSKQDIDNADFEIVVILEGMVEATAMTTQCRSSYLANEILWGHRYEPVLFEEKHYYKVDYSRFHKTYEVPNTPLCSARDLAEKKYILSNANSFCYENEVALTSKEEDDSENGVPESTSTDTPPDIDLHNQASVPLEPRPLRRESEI
Text: as §1

Kv1.4 = Kv1.4 (Homo sapiens, UniProt P22459); test: whole-cell patch-clamp of Kv1.4 currents in 293T cells; format: cell-based; settings: n = 5
Kv1.4, sequence (P22459 whole entry): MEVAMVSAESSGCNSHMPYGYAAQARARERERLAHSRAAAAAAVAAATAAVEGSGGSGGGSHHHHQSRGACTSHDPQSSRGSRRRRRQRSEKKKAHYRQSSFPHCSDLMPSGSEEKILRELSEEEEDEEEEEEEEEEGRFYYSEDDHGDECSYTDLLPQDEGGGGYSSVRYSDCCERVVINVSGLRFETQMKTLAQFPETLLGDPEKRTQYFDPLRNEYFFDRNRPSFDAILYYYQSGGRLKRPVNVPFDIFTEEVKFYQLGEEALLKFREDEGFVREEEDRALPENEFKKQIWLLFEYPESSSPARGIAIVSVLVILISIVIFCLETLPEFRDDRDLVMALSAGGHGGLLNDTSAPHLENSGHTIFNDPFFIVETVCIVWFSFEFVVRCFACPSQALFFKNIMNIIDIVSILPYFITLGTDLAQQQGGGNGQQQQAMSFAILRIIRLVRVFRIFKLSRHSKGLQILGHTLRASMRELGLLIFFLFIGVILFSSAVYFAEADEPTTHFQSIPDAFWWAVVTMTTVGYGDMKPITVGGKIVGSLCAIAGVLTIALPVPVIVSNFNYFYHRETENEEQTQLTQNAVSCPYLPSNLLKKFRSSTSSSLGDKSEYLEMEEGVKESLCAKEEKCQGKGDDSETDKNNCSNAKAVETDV
Text: as §1

HERG-1 = molecular target: T3, HERG-1 (Homo sapiens, UniProt Q12809); test: whole-cell patch-clamp of HERG-1 tail currents in 293T cells; format: cell-based; settings: outward tail current, n = 5
T3 construct: expressed in transfected cells
T3 sequence (Q12809 whole entry): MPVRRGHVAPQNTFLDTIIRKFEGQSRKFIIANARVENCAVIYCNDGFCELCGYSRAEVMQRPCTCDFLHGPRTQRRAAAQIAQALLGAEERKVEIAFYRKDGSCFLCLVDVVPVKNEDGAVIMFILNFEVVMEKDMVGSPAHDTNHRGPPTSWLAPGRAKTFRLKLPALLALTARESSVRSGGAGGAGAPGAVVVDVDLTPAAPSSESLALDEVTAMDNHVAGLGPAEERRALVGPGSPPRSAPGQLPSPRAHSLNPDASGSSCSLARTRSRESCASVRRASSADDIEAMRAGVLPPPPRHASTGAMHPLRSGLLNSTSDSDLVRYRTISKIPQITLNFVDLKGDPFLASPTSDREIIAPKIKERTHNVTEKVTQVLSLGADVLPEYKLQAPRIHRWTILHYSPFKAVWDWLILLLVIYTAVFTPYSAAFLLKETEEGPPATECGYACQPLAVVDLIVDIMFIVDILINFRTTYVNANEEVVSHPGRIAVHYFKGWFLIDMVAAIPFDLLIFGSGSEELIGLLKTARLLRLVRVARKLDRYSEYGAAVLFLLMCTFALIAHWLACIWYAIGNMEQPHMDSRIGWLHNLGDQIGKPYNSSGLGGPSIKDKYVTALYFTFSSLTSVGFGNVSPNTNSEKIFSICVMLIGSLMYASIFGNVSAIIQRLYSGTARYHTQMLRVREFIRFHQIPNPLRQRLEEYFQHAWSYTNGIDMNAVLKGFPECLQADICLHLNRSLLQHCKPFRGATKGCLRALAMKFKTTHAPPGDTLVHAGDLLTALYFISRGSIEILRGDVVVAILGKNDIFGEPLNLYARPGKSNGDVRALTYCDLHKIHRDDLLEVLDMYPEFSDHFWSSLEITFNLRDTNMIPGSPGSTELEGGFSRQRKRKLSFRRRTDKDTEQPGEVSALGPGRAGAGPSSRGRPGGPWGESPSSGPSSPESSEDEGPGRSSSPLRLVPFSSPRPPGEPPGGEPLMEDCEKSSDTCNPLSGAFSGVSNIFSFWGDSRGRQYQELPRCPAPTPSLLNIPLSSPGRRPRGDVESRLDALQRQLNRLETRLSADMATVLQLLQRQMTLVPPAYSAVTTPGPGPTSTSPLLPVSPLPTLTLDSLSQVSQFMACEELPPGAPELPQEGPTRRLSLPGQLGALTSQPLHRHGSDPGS
Text: as §1

KCNQ-3 = KCNQ-3 (Homo sapiens, UniProt O43525); test: whole-cell patch-clamp of KCNQ-3 currents in 293T cells; format: cell-based; settings: 100 μM (data not shown)
Text: as §1

c-Fos immunoreactivity = test: anti-c-Fos immunostaining of mouse brain nuclei; format: in vivo, mice
Method: The mouse was put into an anesthetizing jar and isoflurane (>0.2 ml) was added to the jar. After confirming that mouse was deeply anesthetized, its brain was fixed by transcardiac perfusion with 4% paraformaldehyde in PBS. The brains were sliced coronally (100 μm in thickness) using a microslicer (PRO7, Dosaka, Kyoto, Japan). The free-floating slices were reacted with an anti-c-Fos antibody (1: 200, goat, Santa Cruz, Dallas, TX) dissolved in PBS containing 0.3% BSA and 0.3% Triton-X-100, at 4°C for 48 h. The immunoreaction was visualized using a secondary antibody (rabbit anti-goat IgG, Vectastain Elite ABC-HRP Kit, Vector Labs, Burlingame, CA) and 3,3'-Diaminobenzidine (DAB, Tokyo Chemical Industry, Tokyo, Japan) at room temperature in accordance with the manufacturer’s instructions.
For statistical analysis, the number of c-Fos-immunoreactive cells was quantified using the Image-J software. Briefly, fields (0.16 mm^2) of c-Fos immunoreactivity were acquired by a microscope IX70 (Olympus) using a CCD camera. DAB-positive nuclei, of which diameters were longer than 7 μm, were considered as anti-c-Fos-immunoreactive neurons. The immunoreactive cell numbers were normalized to cells/mm^2.

[1] = 5 mg/kg, 30 min after tail suspension stress, n = 4

T1 sequence (Q9NPC2 whole entry, species assumed): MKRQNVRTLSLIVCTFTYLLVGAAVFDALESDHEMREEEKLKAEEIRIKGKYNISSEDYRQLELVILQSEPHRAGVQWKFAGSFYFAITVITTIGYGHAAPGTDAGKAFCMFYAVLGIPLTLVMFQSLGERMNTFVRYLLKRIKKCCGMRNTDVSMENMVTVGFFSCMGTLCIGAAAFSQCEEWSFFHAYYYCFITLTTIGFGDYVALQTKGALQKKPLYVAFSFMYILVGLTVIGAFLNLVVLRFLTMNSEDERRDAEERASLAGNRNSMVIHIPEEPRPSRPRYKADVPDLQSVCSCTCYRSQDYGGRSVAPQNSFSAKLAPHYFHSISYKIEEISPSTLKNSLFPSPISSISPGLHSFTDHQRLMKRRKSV

CC(C)=CCC/C(C)=C/Cc1cc2ccc(=O)oc2cc1O [ostruthin]
IC50 (TASK-3): 227 µM | IC50 (Kir2.1): 198 µM | IC50 (Kv1.4): 269 µM | IC50 (HERG-1): 216 µM | effect on KCNQ-3 channels (KCNQ-3): no effect | stress-induced c-Fos immunoreactivity in most nuclei (PVN, PVT, CeA, BLA, DRD, DRV) (c-Fos immunoreactivity; [1]): no significant differences | stress-induced increase in c-Fos immunoreactivity in the lateral septum (LS) (c-Fos immunoreactivity; [1]): significantly suppressed | anti-c-Fos immunoreactivity in non-stressed animals (c-Fos immunoreactivity; fixed 30 min after administration, vs PBS (data not shown)): no difference
